Results taken from patent EP4653443A1, “STEREOISOMER AND DEUTERATED DERIVATIVE OF PYRAZOLOQUINAZOLINE COMPOUND AND USE” (Phil Rivers Technology Co., Ltd, priority 2023, dated 2024).
Values after ≈ are worked out from the molar mass of the structure shown.

Legend:
[1] = test system: Caco-2 cells; test: Permeability and transporter substrate test in Caco-2 cells (ABBA); type: in vitro ADME; conditions: Caco-2
Description: (§1) Apparent permeability coefficient (Papp, cm/s) and efflux ratio were calculated using Microsoft Excel.

[2] = as above; type: in vitro ADME; conditions: human, pH 7.4; for Papp A→B at 2 h, 5 µM: Caco-2, A to B, read-out: Average Papp PappA-B; for Papp B→A at 2 h, 5 µM: Caco-2, B to A, read-out: Average Papp PappB-A; for efflux ratio at 2 h, 5 µM: Caco-2, Papp(B-A)/Papp(A-B), read-out: Efflux Rate (ERa)
Description: as §1

[3] = Metabolic stability in liver microsomes (human); type: in vitro ADME; conditions: for Residual Amount (%) 15 min / Residual Amount (%) 30 min / Residual Amount (%) 45 min / Residual Amount (%) 60 min: Human, first line of pair
Description: (§2) For negative samples, add 80µL of PBS (100mM, pH = 7.4) solution. Vortex at 800 rpm for 10 seconds, then pre-incubate in a 37°C water bath for 10 minutes. • 4) After pre-incubation, add 2 µL of control drug or test compound to each well to initiate the reaction. The reaction is carried out in a 37°C water bath at 60 rpm. • 5) At 0.5, 15, 30, 45, and 60 minutes, take 50 µL of the reaction system from each well and add it to 200 µL of cold methanol solution containing the internal standard to terminate the reaction. • 6) Mix thoroughly and centrifuge at 4000 rpm at 4°C for 30 minutes. • 7) Take 100µL of supernatant and mix with 100µL ultrapure water for liquid-mass analysis. *Internal standards: 50nM alprazolam, 50nM labetalol and 100nM ketoprofen
(§3) The internal standard method is adopted, and the ratio of the sample peak area to the internal standard peak area is used to calculate the residual percentage (taking the ratio of the sample peak area to the internal standard peak area at 0.5 minutes as 100%).

[4] = in vivo; conditions: mouse, in vivo, iv, 2 mg/kg
Description: (§4) The objective of this study is to investigate the pharmacokinetic properties of the disclosed compounds after tail vein intravenous injection (IV) and oral administration (PO) in female CD1 mice. Plasma was sampleed at 0, 0.083, 0.25, 0.5, 1, 2, 4, 7 and 24 hours post-dosing, and the drug concentrations in plasma at different time points were detected by LC-MS/MS, and the relevant pharmacokinetic parameters were calculated using WinNonlin software.
(§5) Experimental female CD1 mice were purchased from SPF Laboratory Animal Technology Co., Ltd., aged 6-8 weeks with body weights of 20-30 g. The female CD1 mice were housed in a controlled environment (set temperature at 20-25°C and relative humidity at 40-70%). A 12-hour light/12-hour dark cycle was maintained unless interrupted by study-related events.
(§6) Compound solutions are prepared in an ultra-clean workbench and prepared immediately before use, and mixed thoroughly prior to use to ensure formulation homogeneity.
(§7) Vehicle composition: 10% DMSO+90% (20%SBE-β-CD) Table 4. Doses Used in IV Administration
(§8) Vehicle composition: 10% DMSO + 90% (20%SBE-β-CD) Table 5. Doses Used in PO Administration
(§9) Vehicle composition: 0.5% MC + 1% Tween-20 Table 6. Doses Used in PO Administration
(§10) Prior to the experiment, the animals were randomly grouped. The mice were fasted for 12 hours before drug administration, and free feeding was resumed 4 hours after administration.
(§11) All blood samples were transferred into plastic microcentrifuge tubes containing anticoagulant (EDTA-K2), and then centrifuged at 4000 g for 5 minutes at 4°C. The supernatant was transferred into a microcentrifuge tube without anticoagulant, and the plasma was stored in a -75±15°C refrigerator until detection.
(§12) The blood samples were purified by HPLC and analyzed by mass spectrometry to obtain the plasma concentration-time curve of the disclosed compound.
(§13) The pharmacokinetic parameters were estimated by non-compartmental model method (calculated by Phoenix WinNonlin software).

[5] = Metabolic stability in liver microsomes (mouse); type: in vitro ADME; conditions: for Residual Amount (%) 15 min / Residual Amount (%) 30 min / Residual Amount (%) 45 min / Residual Amount (%) 60 min: Mouse, first line of pair
Description: as §2, §3

[6] = test system: pancreatic cancer cell line (PSN1); test: Proliferation inhibitory activity on cell line PSN1 (CellTiter-Glo, 72 hours); type: cell-based; conditions: for IC50: Homo sapiens, PSN1 cell proliferation; for Max Inhibition Percentage: PSN1 cells
Description: • a) Adherent cells need to be digested and centrifuged, while suspension cells can be directly centrifuged; • b) Resuspend with complete culture medium and count using an automatic cell counter; • c) Plate 6,000 cells per well for PSN1, and dilute the cell suspension to the required density; • d) Add 100 µL of cells per well, and culture overnight at 37°C in a 5% CO2 incubator to stabilize and balance the cells.
• a) Prepare the compound with DMSO as a solution of 200-fold final concentration; • b) Dilute the 200-fold compound to a 3-fold final concentration with complete culture medium; • c) Add 50 µL of the compound per well, use wells with the same volume of culture medium as controls, and continue culturing in a 37°C, 5% CO2 incubator for 72 hours.
• a) Equilibrate the cell plate and CTG reagent to room temperature; • b) Add 30 µL of CellTiter-Glo® reagent per well; • c) Incubate at room temperature for 15 minutes; • d) Detect with a microplate reader.
• 1) Calculate IC50 using GraphPad Prism 8; • 2) %Inh = (1-(Raw data - Meanmin) / (Meanmax - Meanmin))×100; • 3) Meanmax is the positive control well with only cells and the same volume of culture medium; • 4) Meanmin is the negative control well with only culture medium; • 5) Raw data refers to the signal values of wells with added compounds. For two replicate wells, they are denoted as Raw1 and Raw2.

[7] = Thermodynamic solubility test; type: physicochemical; conditions: phosphate buffer, aqueous buffer, thermodynamic from solid, pH 7.4, 25°C
Description: Weigh 7.098 g Na2HPO4 (Solution A) and dissolve in 500 mL ultrapure water via sonication; weigh 3.40 g KH2PO4 (Solution B) and dissolve in 250 mL ultrapure water via sonication. Slowly add Solution B dropwise to Solution A and adjust the pH to 7.40 ± 0.05.
Shake at 1100 rpm, 25°C for 5 minutes; • i) Add 10 µL of the 1 mg/mL DMSO sample and 10 µL of buffer to 980 µL of methanol, then dilute 10-fold with methanol:water (1:1) as the standard sample for LC-MS/MS analysis.
Solubility was calculated using Excel. Solubility(μM) = (Areafiltered × DFfiltered)/(Areastd × DFstd) × [std] × DFstd [formula]

[8] = Pharmacokinetic study in mice (IV and PO, plasma LC-MS/MS); conditions: PO 5 mg/kg vs IV 2 mg/kg
Description: as §4, §5, §6, §7, §8, §9, §10, §11, §12, §13

SMILES	Classification Efflux Transporter Substrate [1]	Papp A→B at 2 h, 5 µM [2] [×10⁻⁶ cm/s]	Papp B→A at 2 h, 5 µM [2] [×10⁻⁶ cm/s]	efflux ratio at 2 h, 5 µM [2]	Residual Amount (%) 15 min [3] [%]	Residual Amount (%) 30 min [3] [%]	Residual Amount (%) 45 min [3] [%]	Residual Amount (%) 60 min [3] [%]	AUC(0-t) [4] [ng·h/mL]	Vd [4] [L/kg]	clearance [4] [mL/min/kg]	half-life [4] [min]	Residual Amount (%) 15 min [5] [%]	Residual Amount (%) 30 min [5] [%]	Residual Amount (%) 45 min [5] [%]	Residual Amount (%) 60 min [5] [%]	IC50 [6] [nM]	Max Inhibition Percentage ([6]; first column of this head)	Max Inhibition Percentage ([6]; second column of this head)	F [8] [%]	other results
NC(=O)c1nn(CCO)c2c1CCc1cnc(Nc3cc(N4CCN5CCC[C@@H]5C4)ccc3OC(F)(F)F)nc1-2 [CPD02]	Probable (ERa ≧ 2)	7.83	23.8	3.04	54.16	32.53	22.97	13.71	404	3.05	81.7	81.6	56.76	39.33	30.29	26.56	67.6	80.8	6.7	38.0	half-life ([3]; Human liver microsomes): 21.4 min; microsomal CLint ([3]; Human liver microsomes): 64.8 µL/min/mg; half-life ([5]; Mouse liver microsomes): 31.5 min; microsomal CLint ([5]; Mouse liver microsomes): 44 µL/min/mg; solubility at 24 h [7]: 2.1 µg/mL (≈ 3.76 µM)
NC(=O)c1nn(CCO)c2c1CCc1cnc(Nc3cc(N4CCN5CCC[C@H]5C4)ccc3OC(F)(F)F)nc1-2 [CPD03]	–	–	–	–	–	–	–	–	433	4.29	79.1	226	–	–	–	–	256	73.6	-3.1	16.2	–
O=C(O)Cc1ccccc1Nc1c(Cl)cccc1Cl [Diclofenac, reference compound]	–	–	–	–	10.78	5.62	3.65	2.93	–	–	–	–	61.24	56.66	51.87	45.26	–	–	–	–	microsomal CLint at 2 µM ([3]; pH 7.4, Human liver microsomes): 194 µL/min/mg; microsomal CLint ([5]; male, CD-1, pH 7.4, Mouse liver microsomes): 67.6 µL/min/mg
C[C@H]1O[C@@H](O[C@H]2[C@@H](O)C[C@H](O[C@H]3[C@@H](O)C[C@H](O[C@H]4CC[C@@]5(C)[C@H](CC[C@@H]6[C@@H]5C[C@@H](O)[C@]5(C)[C@@H](C7=CC(=O)OC7)CC[C@]65O)C4)O[C@@H]3C)O[C@@H]2C)C[C@H](O)[C@@H]1O [Digoxin]	Probable (ERa ≧ 2)	0.94	26.1	27.8	–	–	–	–	–	–	–	–	–	–	–	–	–	–	–	–	–
COc1cc2nc(N3CCN(C(=O)c4ccco4)CC3)nc(N)c2cc1OC [Prazosin]	–	8.97	29.6	–	–	–	–	–	–	–	–	–	–	–	–	–	–	–	–	–	–
CC(C)NCC(O)COc1cccc2ccccc12 (centres unmarked) [Propranolol]	Unlikely or Not (ERa<2)	22.3	14.7	0.66	–	–	–	–	–	–	–	–	–	–	–	–	–	–	–	–	–
